Reference: patent US20050080020A1, “Hydroxylated indirubin derivatives” (priority 2002, published 2005)
Like-named read-outs stand apart in the source and are kept apart here.

Tests used:
[1] = test system: human solid tumors implanted into nude mice; details: cited from earlier work
[2] = log P (octanol/water); format: physicochemical
[3] = test system: cytochrom P450 dependent liver monooxygenases
[4] = solubility in physiological saline (pH 7.4); format: physicochemical
[5] = test system: tumor cells; experiment: inhibition of growth of tumor cells; format: cell-based; details: relative to parent compounds
[6] = nude mice, comparable dosage, cf. PCT/EP00/03210

Compound	log P (octanol/water) [2]	solubility in physiological saline [4]	inhibiting growth of tumor cells, compared with the parent compounds [5]	also measured
Cc1ccc2c(c1)/C(=C1/Nc3ccccc3C1=O)C(=O)N2 [5-methylindirubin]	1.1	0.1 mg/l		effectiveness on human solid tumors implanted into nude mice [1, 6]: highly effective; toxicity (body weight loss) [1, 6]: without any perceptible toxicity; metabolism (oxidative, liver microsomes) ([3]; liver microsome preparations from cows, pigs, rats and human liver samples): rapidly metabolized
Cc1cc2c(cc1O)NC(=O)C2=C1Nc2c(O)cccc2C1=O [6,7′-dihydroxy-5-methylindirubin]			at least as effective	
Cc1cc2c(cc1O)NC(=O)C2=C1Nc2ccccc2C1=O [6-hydroxy-5-methylindirubin]	1.6	up to 240 mg/l	at least as effective	increase of solubility versus parent compound 5-methylindirubin (factor) [4]: more than 2000
O=C1Nc2ccccc2/C1=C1/Nc2ccccc2C1=O [indirubin]				toxicity (body weight loss) ([1]; mouse, in vivo): remarkably toxic; metabolism (oxidative, liver microsomes) [3]: not metabolized to a detectable extent
